{
  "source": "patent US20210276987A1",
  "about": "“PHARMACEUTICAL AGENTS FOR USE IN SMOKING AND TOBACCO CESSATION” (Washington State University, priority 2018, published 2021)",
  "key": {"[1]": {"system": "UGTs 1A1, 1A4, 1A6, 1A9, 2B4, 2B7, 2B10, 2B15 and 2B17", "test": "Selectivity over other major hepatic UGT enzymes (panel statement)", "type": "biochemical, human"}, "UGT1A4": {"molecular_target": "UGT1A4 (Homo sapiens, UniProt P22310)", "sequence (P22310 29-534)": "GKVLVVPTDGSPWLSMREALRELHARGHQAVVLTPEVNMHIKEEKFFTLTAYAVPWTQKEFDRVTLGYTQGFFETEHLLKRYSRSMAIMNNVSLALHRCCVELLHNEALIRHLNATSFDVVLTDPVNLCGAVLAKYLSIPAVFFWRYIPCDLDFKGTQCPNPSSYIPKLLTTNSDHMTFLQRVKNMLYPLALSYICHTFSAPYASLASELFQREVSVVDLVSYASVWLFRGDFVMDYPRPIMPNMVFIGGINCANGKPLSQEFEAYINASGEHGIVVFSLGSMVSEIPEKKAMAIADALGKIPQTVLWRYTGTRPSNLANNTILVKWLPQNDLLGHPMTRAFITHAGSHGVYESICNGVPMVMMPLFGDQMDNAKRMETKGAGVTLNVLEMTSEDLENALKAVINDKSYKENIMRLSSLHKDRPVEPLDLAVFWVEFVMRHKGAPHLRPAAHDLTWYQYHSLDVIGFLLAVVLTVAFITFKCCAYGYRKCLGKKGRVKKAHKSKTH", "settings": "Table 10"}, "UGT1A6": {"molecular_target": "UGT1A6 (Homo sapiens, UniProt P19224)", "sequence (P19224 27-532)": "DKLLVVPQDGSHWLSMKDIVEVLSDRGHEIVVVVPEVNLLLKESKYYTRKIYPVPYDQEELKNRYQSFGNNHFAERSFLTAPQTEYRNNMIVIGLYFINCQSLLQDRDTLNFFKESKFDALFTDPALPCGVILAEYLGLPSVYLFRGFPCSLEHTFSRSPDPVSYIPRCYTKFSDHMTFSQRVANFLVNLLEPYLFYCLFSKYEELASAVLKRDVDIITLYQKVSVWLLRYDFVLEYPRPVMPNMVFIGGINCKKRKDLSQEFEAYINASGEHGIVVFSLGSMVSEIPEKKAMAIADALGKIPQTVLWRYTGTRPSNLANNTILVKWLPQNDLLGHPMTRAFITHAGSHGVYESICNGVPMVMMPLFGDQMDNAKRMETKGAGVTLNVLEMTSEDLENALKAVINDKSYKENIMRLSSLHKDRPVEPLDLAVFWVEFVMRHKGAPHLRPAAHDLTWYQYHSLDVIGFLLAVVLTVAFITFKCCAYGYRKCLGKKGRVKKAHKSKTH", "settings": "Table 10"}, "UGT2B17": {"molecular_target": "UGT2B17 (Homo sapiens, UniProt O75795)", "sequence (O75795 24-530)": "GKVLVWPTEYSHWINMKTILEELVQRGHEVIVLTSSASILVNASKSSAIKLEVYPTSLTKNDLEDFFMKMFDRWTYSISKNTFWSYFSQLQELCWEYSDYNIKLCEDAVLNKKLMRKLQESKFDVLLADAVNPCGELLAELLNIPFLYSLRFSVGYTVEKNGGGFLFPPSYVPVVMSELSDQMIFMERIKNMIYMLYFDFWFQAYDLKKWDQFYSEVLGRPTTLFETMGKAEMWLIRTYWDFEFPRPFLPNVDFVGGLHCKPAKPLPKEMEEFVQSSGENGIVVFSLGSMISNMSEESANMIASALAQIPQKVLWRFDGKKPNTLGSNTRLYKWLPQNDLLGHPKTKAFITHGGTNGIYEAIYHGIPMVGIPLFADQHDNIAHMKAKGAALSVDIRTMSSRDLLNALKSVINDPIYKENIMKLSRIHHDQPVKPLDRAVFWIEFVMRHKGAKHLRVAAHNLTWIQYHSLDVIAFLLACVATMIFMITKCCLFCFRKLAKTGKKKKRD", "settings": "Table 10"}, "[2]": {"system": "at least two (not named) of CYPs 1A2, 2B6, 2C8, 2C9, 2C19, 2D6, 2E1 and 3A4, relative to CYP2A6", "test": "in vitro", "settings": "human"}, "CYP1A2": {"molecular_target": "T1, CYP1A2 (Homo sapiens, UniProt P05177)", "T1 sequence (P05177 1-516)": "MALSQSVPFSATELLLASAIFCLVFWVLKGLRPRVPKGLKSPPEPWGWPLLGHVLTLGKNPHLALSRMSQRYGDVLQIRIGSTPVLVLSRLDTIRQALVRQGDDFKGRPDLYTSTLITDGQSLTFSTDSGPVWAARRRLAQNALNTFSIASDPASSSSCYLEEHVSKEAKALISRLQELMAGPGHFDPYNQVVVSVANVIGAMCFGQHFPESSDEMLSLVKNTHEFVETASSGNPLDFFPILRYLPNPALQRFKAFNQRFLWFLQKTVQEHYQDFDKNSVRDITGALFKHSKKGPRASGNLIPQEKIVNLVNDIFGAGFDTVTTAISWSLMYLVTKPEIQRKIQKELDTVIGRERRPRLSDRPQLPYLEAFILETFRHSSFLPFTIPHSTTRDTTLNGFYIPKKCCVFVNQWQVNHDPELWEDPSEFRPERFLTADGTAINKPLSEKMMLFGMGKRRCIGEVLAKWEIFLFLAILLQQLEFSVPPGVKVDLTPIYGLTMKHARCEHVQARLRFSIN", "test": "CYP1A2 inhibition assay, human liver microsomes, phenacetin probe (cocktail)", "settings": "Table 6"}, "CYP2C19": {"molecular_target": "CYP2C19 (Homo sapiens, UniProt P33261)", "sequence (P33261 whole entry)": "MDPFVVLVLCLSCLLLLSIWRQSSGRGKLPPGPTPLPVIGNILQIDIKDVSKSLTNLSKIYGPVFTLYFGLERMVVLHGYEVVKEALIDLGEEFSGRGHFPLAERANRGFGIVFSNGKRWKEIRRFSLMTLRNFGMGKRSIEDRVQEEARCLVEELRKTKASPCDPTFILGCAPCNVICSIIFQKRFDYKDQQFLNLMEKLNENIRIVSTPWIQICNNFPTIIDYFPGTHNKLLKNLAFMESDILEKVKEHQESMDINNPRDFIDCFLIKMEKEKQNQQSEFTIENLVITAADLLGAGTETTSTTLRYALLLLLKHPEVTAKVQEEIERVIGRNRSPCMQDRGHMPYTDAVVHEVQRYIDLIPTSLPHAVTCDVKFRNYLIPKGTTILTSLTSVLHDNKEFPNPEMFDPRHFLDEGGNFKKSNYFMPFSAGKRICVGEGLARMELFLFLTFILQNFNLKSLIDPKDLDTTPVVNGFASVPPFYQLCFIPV", "test": "CYP2C19 inhibition assay, human liver microsomes, omeprazole probe (cocktail)", "settings": "Table 6"}, "CYP2D6": {"molecular_target": "CYP2D6 (Homo sapiens, UniProt P10635)", "sequence (P10635 whole entry)": "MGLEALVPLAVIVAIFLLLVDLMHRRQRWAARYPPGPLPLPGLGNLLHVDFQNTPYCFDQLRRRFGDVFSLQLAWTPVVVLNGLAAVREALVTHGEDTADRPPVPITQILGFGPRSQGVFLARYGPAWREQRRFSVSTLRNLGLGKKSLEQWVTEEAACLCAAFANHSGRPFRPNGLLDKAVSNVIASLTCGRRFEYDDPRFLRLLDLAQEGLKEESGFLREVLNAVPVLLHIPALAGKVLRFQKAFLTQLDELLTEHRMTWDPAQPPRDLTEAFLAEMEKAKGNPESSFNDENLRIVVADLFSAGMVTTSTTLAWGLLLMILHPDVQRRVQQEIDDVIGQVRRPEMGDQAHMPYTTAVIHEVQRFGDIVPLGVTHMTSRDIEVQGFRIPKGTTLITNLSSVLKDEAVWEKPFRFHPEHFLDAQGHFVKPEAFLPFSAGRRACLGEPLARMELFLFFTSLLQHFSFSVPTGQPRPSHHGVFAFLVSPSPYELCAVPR", "test": "CYP2D6 inhibition assay, human liver microsomes, dextromethorphan probe (cocktail)", "settings": "Table 6"}},
  "data": [
    {"smiles": "COc1ccncc1C#CCN", "note": "[Compound K, 3-(4-methoxypyridin-3-yl)prop-2-yn-1-amine]", "values": [
      {"measurement": "UGThepatic/UGT2B10 IC50 ratio against all UGT enzymes tested", "setting": "[1]", "result": "> 3.5"},
      {"measurement": "IC50 ratio UGT1A4/UGT2B10", "setting": "UGT1A4", "result": 7},
      {"measurement": "IC50 ratio UGT1A6/UGT2B10", "setting": "UGT1A6", "result": 29},
      {"measurement": "IC50 ratio UGT2B17/UGT2B10", "setting": "UGT2B17", "result": 26},
      {"measurement": "selectivity ratio at 15 min", "setting": "[2]", "result": "< 5"},
      {"measurement": "IC50 ratio CYP1A2/CYP2A6", "setting": "CYP1A2", "result": 7.4},
      {"measurement": "IC50 ratio CYP2C19/CYP2A6", "setting": "CYP2C19", "result": 2.7},
      {"measurement": "IC50 ratio CYP2D6/CYP2A6", "setting": "CYP2D6", "result": ">15"}
    ]}
  ]
}
